The record followed here is patent publication US10125112B2, “Modulators of the relaxin receptor 1” (The United States of America, as Represented by the …, priority 2012, dated 2018).

Values after ≈ are worked out from the molar mass of the structure shown. Where two headings read alike, the source gives them in different places.

For data set [1], the system named is VEGF gene expression in THP1 cells. The experiment in a line: VEGF gene expression in THP1 cells (qRT-PCR). To be noted: 2 hours treatment, normalized to GAPDH. The class given is cell-based, human. The source says:
This example illustrates the activation of VEGF expression in THP1 cells by several embodiments of the disclosure.
THP1 cells (human acute monocytic leukemia cell line) were used to analyze the stimulation of VEGF gene expression after treatment with relaxin or compounds. The VEGF stimulation in these cultured endometrial cells is a well-established property of relaxin.^19 This effect is most probably responsible for the observed angiogenic and neovascularization properties of relaxin in various settings.^20 400,000 THP1 cells (0.4 mL at 1×10^6 cells/mL) in test media (RPMI-1640 without phenol red, 0.5% FBS, Ix Pen/Strep, 0.05 mM of 2-mercaptoethanol) were seeded in each well on a 24-well plate. After 24 hours incubation at 37° C., 5% CO2, relaxin or compounds were added for 2 hours. […] Quantitative real time RT-PCR for VEGF and GAPDH gene expression was done using a Roche LightCycler 480 (Roche Diagnostics, Indianapolis, Ind.) with the appropriate set of primers and probes spanning different exons. The relative fold change in VEGF mRNA level was calculated by the comparative Ct (2-ΔΔ^Ct) method using GAPDH expression for normalization of RNA. […]
On the technique in general: Real-time PCR tracks product formation cycle by cycle.

Another data set has as its system cAMP in THP-1 cells. The data set can be described thus: cyclic AMP assay in THP-1 cells. The class given is cell-based. To be noted: Homo sapiens. Here is the method:
This Example illustrates the cyclic AMP assay in THP-1 cells. THP-1 cells were propagated in RPMI-1640 supplemented with 20% FBS, 0.05 mM β-mercaptoethanol, 100 U/mL penicillin and 100 μg/mL streptomycin at 37° C. in 5% CO2. Before assaying for cAMP response, cells were serum starved in RPMI-1640 supplemented with 0.05 mM (3-mercaptoethanol, 100 U/mL penicillin and 100 μg/mL streptomycin at 37° C. in 5% CO2 for 16 hrs. For 384-well format assays, cells were seeded as 30,000 cells/well in 30 μL/well media with a MultiDrop Combi dispenser (Thermo Scientific, Waltham, Mass.). Subsequently, 2 μL/well of 1.6 mM Ro 20-1724 and 160 uM forskolin in PBS+ (DPBS, 1 mM CaCl2, 0.5 mM MgCl2, 0.05% BSA, 0.005% Tween 20) was dispensed using a BioRAPTR FRD dispenser (Beckman Coulter, Brea, Calif.). Immediately after, 0.25 μL/well of compound solutions in DMSO was dispensed with CyBi-well dispenser (CyBio, Jena, Germany). The cells were allowed to be stimulated with compounds for 30 min at 37° C. in 5% CO2, after which, 8 μL/well of each HTRF cAMP HiRange kit (CisBio, Bedford, Mass.) detection reagent was dispensed with a BioRAPTR FRD dispenser. The detection reagents were diluted as such: K-α-cAMP antibody at 1:20 and cAMP-d2 at 1:18 in HTRF lysis buffer (supplied by the assay kit). The plates were incubated for 30 min at room temperature before the signal was read on an Envision plate reader (PerkinElmer, Waltham, Mass.).

For another data set, the target named is T1, RXFP1 (Homo sapiens, UniProt Q9HBX9).
T1 construct: expressed in transfected cells
T1 sequence (Q9HBX9 1-757): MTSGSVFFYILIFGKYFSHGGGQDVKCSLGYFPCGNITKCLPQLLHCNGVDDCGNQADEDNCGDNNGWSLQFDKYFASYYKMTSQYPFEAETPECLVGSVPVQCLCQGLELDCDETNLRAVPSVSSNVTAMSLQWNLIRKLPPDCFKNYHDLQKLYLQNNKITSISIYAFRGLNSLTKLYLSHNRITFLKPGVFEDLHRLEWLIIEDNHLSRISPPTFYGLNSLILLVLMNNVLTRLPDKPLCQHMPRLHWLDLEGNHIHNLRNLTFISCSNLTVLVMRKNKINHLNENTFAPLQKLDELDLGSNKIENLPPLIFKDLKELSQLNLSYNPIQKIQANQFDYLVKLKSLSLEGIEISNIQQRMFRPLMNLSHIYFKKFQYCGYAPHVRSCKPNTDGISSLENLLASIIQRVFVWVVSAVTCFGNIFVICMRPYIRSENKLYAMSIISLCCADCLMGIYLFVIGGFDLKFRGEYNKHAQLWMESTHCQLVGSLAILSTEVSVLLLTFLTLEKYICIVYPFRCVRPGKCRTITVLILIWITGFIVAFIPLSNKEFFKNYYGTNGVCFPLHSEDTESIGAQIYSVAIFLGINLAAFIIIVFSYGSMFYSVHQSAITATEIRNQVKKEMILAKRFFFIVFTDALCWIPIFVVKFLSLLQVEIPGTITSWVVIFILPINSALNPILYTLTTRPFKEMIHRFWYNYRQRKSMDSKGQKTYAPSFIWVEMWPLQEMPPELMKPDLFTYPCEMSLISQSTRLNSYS
The data set can be described thus: RXFP1 cAMP assay in HEK293-RXFP1 cells (HTRF). The class given is cell-based. Here is the method: The RXFP1 receptor couples to the Gs protein, and activation of the receptor results in stimulation of cAMP production. […] The TR-FRET between the K-α-cAMP and cAMP-d2 is disrupted by cAMP in the cell lysates, thus allowing TR-FRET detection in a homogenous format that is suitable for HTS. […] The primary screen was carried out in 1536-well format, however, because of a more robust signal to background ratio, all subsequent follow-up experiments were carried out in 384-well format.
For the primary screen, HEK293-RXFP1 cells were seeded at 2,000 cells/well in 3 μL/well media with a MultiDrop Combi dispenser (Thermo Scientific, Logan, Utah), and allowed to attach overnight at 37° C., 5% CO2. […] The cells were allowed to be stimulated with the compounds for 30 minutes at 37° C., 5% CO2, after which, 1 μL/well of each HTRF detection reagent was dispensed with a BioRAPTR FRD dispenser. The detection reagents were diluted before addition as follows: K-α-cAMP antibody at 1:20 and cAMP-d2 at 1:18 in HTRF lysis buffer (supplied by the assay kit). The plates were incubated for 30 minute at room temperature, and then the signal was read on a ViewLux plate reader (PerkinElmer, Waltham, Mass.).
The assay was run according to the following protocol:
Max Response indicates what the maximal amount of functional activity induced by the compound is, as a percentage of the maximal receptor activation induced by high concentrations of forskolin.
A general note: cAMP levels reflect the balance of adenylyl cyclase and phosphodiesterase activity.

The target of the next data set is T2, RXFP2 (Homo sapiens, UniProt Q8WXD0).
T2 construct: expressed in transfected cells
The data set can be described thus: RXFP2 cAMP assay in HEK293-RXFP2 cells. The class given is cell-based. As to the method:
HEK293 cells stably transfected with RXFP2, the cognate receptor for another relaxin family peptide, insulin-like 3, (HEK293-RXFP2) was used to test compound specificity towards the RXFP1 receptor. For this assay, cells were seeded at 8,000 cells/well in 30 µL/well of media with a MultiDrop Combi dispenser (Thermo Scientific), and allowed to attach overnight at 37° C., 5% CO2. Next, 2 µL/well of 1.6 mM Ro 20-1724 solution in PBS+(DPBS, 1 mM CaCl2, 0.5 mM MgCl2, 0.05% BSA, 0.005% Tween 20) were dispensed using a BioRAPTR FRD dispenser (Beckman Coulter, Brea, Calif.), followed addition of 0.25 μL/well of compound solution in DMSO with CyBi-well dispenser (CyBio, Jena, Germany). The cells were allowed to be stimulated with the compounds for 30 minutes at 37° C., 5% CO2, after which, 8 μL/well of each HTRF detection reagent (diluted according to assay kit directions in HTRF lysis buffer) was dispensed with a BioRAPTR FRD dispenser. The plates were incubated for 30 minute at 37° C., and then the signal was read on a ViewLux plate reader (PerkinElmer, Waltham, Mass.).

A further data set can be described thus: PBS solubility. Type of data set: physicochemical. To be noted: aqueous buffer.
Setting [2] is: 0.5 h, THP-1 cells, cAMP HTRF, with Ro 20-1724 and forskolin, 30 min, read-out: EC50.
The mark [3] stands for this setting: percentage of the maximal receptor activation induced by high concentrations of forskolin, Tables 1-7, read-out: Max Response.
The mark [4] stands for this setting: read-out: RXFP1 AC50 (μM, Max. Resp.): Max. Resp.
Setting [5] is: HEK293-RXFP1 cells, cAMP HTRF, with Ro 20-1724, Tables 1-7, read-out: RXFP1 AC50.

T2 sequence (Q8WXD0 whole entry, species assumed): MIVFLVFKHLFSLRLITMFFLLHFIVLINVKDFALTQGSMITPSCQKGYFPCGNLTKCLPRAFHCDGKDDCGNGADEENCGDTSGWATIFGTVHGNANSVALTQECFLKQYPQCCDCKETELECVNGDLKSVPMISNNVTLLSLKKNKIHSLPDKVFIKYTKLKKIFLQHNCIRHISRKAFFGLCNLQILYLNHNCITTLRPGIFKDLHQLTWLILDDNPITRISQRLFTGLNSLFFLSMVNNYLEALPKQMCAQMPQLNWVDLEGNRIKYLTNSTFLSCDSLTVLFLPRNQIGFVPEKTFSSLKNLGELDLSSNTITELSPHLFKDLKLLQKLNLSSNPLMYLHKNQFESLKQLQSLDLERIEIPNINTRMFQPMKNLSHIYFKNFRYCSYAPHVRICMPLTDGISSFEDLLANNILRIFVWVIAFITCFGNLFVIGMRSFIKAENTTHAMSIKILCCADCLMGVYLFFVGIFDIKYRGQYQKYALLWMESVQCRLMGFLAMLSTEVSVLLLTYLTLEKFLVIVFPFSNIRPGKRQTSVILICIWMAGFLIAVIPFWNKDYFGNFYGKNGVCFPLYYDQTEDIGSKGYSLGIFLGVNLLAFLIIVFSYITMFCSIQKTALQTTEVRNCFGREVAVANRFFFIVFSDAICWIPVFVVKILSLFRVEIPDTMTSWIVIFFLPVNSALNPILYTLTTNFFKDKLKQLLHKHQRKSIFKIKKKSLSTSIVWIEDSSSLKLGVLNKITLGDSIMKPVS

A word on the EC50: it is the midpoint of the concentration-response curve. For `CCOc1ccccc1C(=O)Nc1ccccc1C(=O)Nc1cccc(C(F)(F)F)c1` [Compound 99, 2-Ethoxy-N-(2-((3-(trifluoromethyl)phenyl)carbamoyl)phenyl)benzamide], in data set [1], the “Relative VEGF gene expression (control = 1.0)” value was found to be 1.9. Besides, in the data set with cAMP in THP-1 cells (setting [2]), the EC50 is 471 nM. `COc1ccccc1C(=O)Nc1ccccc1C(=O)Nc1cccc(SC(F)(F)F)c1` [Compound 158]: the EC50 with cAMP in THP-1 cells (setting [2]) stood at 523 nM. Same read-out and setting: to `COc1ccccc1C(=O)Nc1ccccc1C(=O)Nc1cccc(S(=O)(=O)C(F)(F)F)c1` [Compound 159, 2-Methoxy-N-(2-((3-((trifluoromethyl)sulfonyl)phenyl)carbamoyl)phenyl)benzamide] belongs 358 nM.

As to `O=C(Nc1ccc(F)cc1)c1ccccc1NC(=O)C1CCCCC1` [Example 13], on RXFP1 (setting [3]), the Emax was 74%. On the same count and under the same terms, with `C#Cc1cccc(NC(=O)c2ccccc2NC(=O)C2CCCCC2)c1` [Example 21] the figure was 85%; with `O=C(NCc1ccco1)c1ccccc1NC(=O)c1ccccc1NC(=O)C1CCCCC1` [Example 44], 45%. With `CC(=O)Nc1ccccc1C(=O)Nc1cccc(C(F)(F)F)c1` [Example 47], the Emax on RXFP1 (read-out: Max Response) amounted to 51%. Consider `O=C(Nc1cccc(C(F)(F)F)c1)c1ccccc1NC(=O)c1ccccc1C(F)(F)F` [Example 70], for which the Emax on RXFP1 (setting [3]) came to 70%. Still for that read-out and setting: to `O=C(Nc1ccccc1C(=O)Nc1cccc(C(F)(F)F)c1)c1ccccc1I` [Example 86] belongs 80%.

Usually AC50 stands for the midpoint of the concentration-response curve, whichever way the signal moves. A word on the solubility: it is the dissolved amount per volume that the medium holds. High values mean a readily soluble substance, low ones a poorly soluble substance. Turning to `CCOc1ccccc1C(=O)Nc1ccccc1C(=O)Nc1cccc(C(F)(F)F)c1` [Example 99], the AC50 at RXFP1 (Table 10, read-out: RXFP1 AC50 (μM, Max. Resp.): AC50) was found to be 0.297 µM; on RXFP2 (HEK293-RXFP2 cells, inactive = Maximum response less than 30%, read-out: RXFP2 AC50 (μM, Max. Resp.): AC50), 9.4 µM. The Emax on RXFP1 (setting [3]) was 94%; at RXFP1 (setting [4]) it was 95%; at RXFP2 (0.5 h, read-out: RXFP2 AC50 (μM, Max. Resp.): Max. Resp.), 47%. The solubility in the data set “PBS solubility” came out at 1.7 µM (≈ 0.728 µg/mL). Consider `CCOc1ccccc1C(=O)Nc1ccccc1-c1nc2cc(C(F)(F)F)ccc2[nH]1` [Example 141], for which, on RXFP1 (setting [3]), the Emax was 31%. As to `CCOc1ccccc1-c1nc2ccccc2c(=O)n1-c1cccc(-c2nnn[nH]2)c1` [Example 143], at RXFP1 (setting [3]), the Emax came to 36%.

As for `COc1ccccc1C(=O)Nc1ccccc1C(=O)Nc1cccc(S(=O)(=O)C(F)(F)F)c1` [Example 159], the Emax on RXFP1 (read-out: Max Response) and at RXFP1 (setting [4]) was 99% each time. Regarding `CCOc1ccccc1C(=O)Nc1ccccc1C(=O)Nc1cncc(I)c1` [Example 165], on RXFP1 (setting [5]), the AC50 was determined as 11.8 µM. For the same compound, on RXFP1 (setting [3]), the Emax was found to be 72%. Regarding `C/C=C\c1cccc(NC(=O)c2ccccc2NC(=O)c2ccccc2OCC)c1` [Example 169], the concentration at half-maximal activity (AC50) at RXFP1 (setting [5]) was 1.49 µM. Moreover, on RXFP1 (setting [3]), the Emax is 91%. As to `CCSc1ccccc1C(=O)Nc1ccccc1C(=O)Nc1cccc(S(=O)(=O)C(F)(F)F)c1` [Example 176], the Emax on RXFP1 (setting [3]) was 95%. In the data set with cAMP in THP-1 cells (THP-1, 0.5 h), `O=C(Nc1cccc(S(=O)(=O)C(F)(F)F)c1)c1ccccc1NC(=O)c1ccccc1OCC(F)(F)F` [Example 177, 2-(2,2,2-Trifluoroethoxy)-N-(2-((3-((trifluoromethyl)sulfonyl)phenyl)carbamoyl)phenyl)benzamide] showed an EC50 of 107 nM. In the case of `O=C(Nc1cccc(S(=O)(=O)C(F)(F)F)c1)c1ccccc1NC(=O)c1ccccc1OCC(F)(F)F` [Example 177], the Emax on RXFP1 (read-out: Max Response) and on RXFP1 (setting [4]) was 97% in each case. On to `CC(C)Oc1ccccc1C(=O)Nc1ccccc1C(=O)Nc1cccc(S(=O)(=O)C(F)(F)F)c1` [Example 178, 2-Isopropoxy-N-(2-(3-(trifluoromethylsulfonyl)phenylcarbamoyl)phenyl)benzamide], for which the EC50 in the data set with cAMP in THP-1 cells (setting [2]) worked out at 200 nM. With `CCCOc1ccccc1C(=O)Nc1ccccc1C(=O)Nc1cccc(S(=O)(=O)C(F)(F)F)c1` [Example 179, 2-Propoxy-N-(2-((3-((trifluoromethyl)sulfonyl)phenyl)carbamoyl)phenyl)benzamide], the “Relative VEGF gene expression (control = 1.0)” value in data set [1] stood at 1.5. Further, the EC50 in the data set with cAMP in THP-1 cells (THP-1, 0.5 h) is 105 nM. In the data set on cAMP in THP-1 cells (THP-1, 0.5 h), `CCCCOc1ccccc1C(=O)Nc1ccccc1C(=O)Nc1cccc(S(=O)(=O)C(F)(F)F)c1` [Example 180, 2-Butoxy-N-(2-((3-((trifluoromethyl)sulfonyl)phenyl)carbamoyl)phenyl)benzamide] registered a concentration giving a half-maximal response (EC50) of 124 nM. On to `CCCCOc1ccccc1C(=O)Nc1ccccc1C(=O)Nc1cccc(S(=O)(=O)C(F)(F)F)c1` [Example 180], for which the Emax at RXFP1 (read-out: Max Response) and at RXFP1 (setting [4]) was 98% throughout.
